US20250059164A1, “IRAK DEGRADERS AND USES THEREOF” (Kymera Therapeutics, Inc., priority 2023, published 2025)

The compounds below were run against T1, IRAK4 (Homo sapiens, UniProt Q9NWZ3) (assay: IRAK4 MSD degradation in OCI-LY10). Settings: OCI-LY10 cells, 24 hrs, Meso Scale Discovery.
T1 construct: endogenous in cells; host or cells: OCI-LY10
T1 sequence (Q9NWZ3 1-460): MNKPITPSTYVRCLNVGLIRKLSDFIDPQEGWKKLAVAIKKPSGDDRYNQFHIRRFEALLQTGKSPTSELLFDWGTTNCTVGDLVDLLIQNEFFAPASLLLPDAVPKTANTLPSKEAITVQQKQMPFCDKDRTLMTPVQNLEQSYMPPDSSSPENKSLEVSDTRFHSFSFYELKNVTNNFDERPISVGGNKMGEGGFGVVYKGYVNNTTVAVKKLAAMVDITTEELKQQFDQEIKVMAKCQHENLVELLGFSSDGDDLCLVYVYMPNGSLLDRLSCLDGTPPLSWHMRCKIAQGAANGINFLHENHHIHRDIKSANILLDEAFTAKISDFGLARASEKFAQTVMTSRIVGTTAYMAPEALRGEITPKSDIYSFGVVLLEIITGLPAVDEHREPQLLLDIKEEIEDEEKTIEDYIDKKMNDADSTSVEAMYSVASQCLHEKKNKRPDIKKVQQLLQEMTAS
Assay type: cell-based
Method in brief: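 OCI-LY10 cells treated 4 to 24 hours at 37° C. with 8-dose 1:3 series, top 1 to 10 μM. IRAK4 in lysates quantified by MSD sandwich immunoassay (mouse capture, rabbit detection, SULFO-TAG anti-rabbit). DC50 from three-parameter logistic fit.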

Row | DC50 | Compound
1 | 10 to 100 nM | CN(C[C@H]1CC[C@H](n2cc3cc(NC(=O)c4cccc(C(F)(F)F)n4)ncc3n2)CC1)[C@H]1CCN(c2cccc3c2n(C)c(=O)n3C2CCC(=O)NC2=O)C[C@@H]1F (single isomer, unassigned) [I-36]
2 | < 10 nM | CN(C[C@H]1CC[C@H](n2cc3cc(NC(=O)c4cccc(C(F)(F)F)n4)ncc3n2)CC1)[C@H]1CCN(c2cccc3c2n(C)c(=O)n3C2CCC(=O)NC2=O)C[C@H]1F (stereo partly shown) [I-34]
3 | 10 to 100 nM | Cn1c(=O)n(C2CCC(=O)NC2=O)c2cccc(N3CC(COC[C@H]4CC[C@H](n5cc6cc(NC(=O)c7cccc(C(F)(F)F)c7)ccc6n5)CC4)C3)c21 (stereo partly shown) [I-126]
4 | < 10 nM | CN(C[C@H]1CC[C@H](n2cc3cc(NC(=O)c4cccc(C(F)(F)F)n4)c(C#N)cc3n2)CC1)[C@H]1CCN(c2cccc3c2n(C)c(=O)n3C2CCC(=O)NC2=O)C[C@H]1F (stereo partly shown) [I-8]
5 | < 10 nM | Cn1c(=O)n(C2CCC(=O)NC2=O)c2cccc(OC3CC4(CCN(Cc5ccc(-n6cc(NC(=O)c7cnn8ccc(N9C[C@H]%10C[C@@H]9CO%10)nc78)c(C(F)F)n6)cc5)CC4)C3)c21 (stereo partly shown) [I-113]
6 | < 10 nM | CN(C[C@H]1CC[C@H](n2cc3cc(NC(=O)c4cccc(C(F)(F)F)n4)c(C#N)cc3n2)CC1)[C@@H]1CCN(c2cccc3c2n(C)c(=O)n3C2CCC(=O)NC2=O)C[C@H]1F (stereo partly shown) [I-58]
7 | < 10 nM | CN(C[C@H]1CC[C@H](n2cc3cc(NC(=O)c4cccc(C(F)(F)F)n4)c(C(C)(C)O)cc3n2)CC1)[C@H]1CCN(c2cccc3c2n(C)c(=O)n3C2CCC(=O)NC2=O)C[C@@H]1F (stereo partly shown) [I-68]
8 | < 10 nM | COc1cc2nn([C@H]3CC[C@H](CN4CC[C@@H](c5cccc6c5c(C)nn6C5CCC(=O)NC5=O)[C@H](F)C4)CC3)cc2cc1NC(=O)c1cncc(C#N)c1 (single isomer, unassigned) [I-265]
9 | > 200 nM | Cc1nn(C2CCC(=O)NC2=O)c2cccc(N3CC(N4CCN([C@H]5CC[C@@H](n6cc(NC(=O)c7cnn8ccc(N9C[C@H]%10C[C@@H]9CO%10)nc78)c(C(F)F)n6)CC5)CC4)C3)c12 (stereo partly shown) [I-57]
10 | 10 to 100 nM | COc1cc2nc([C@H]3CC[C@H](CN4CC[C@@H](c5cccc6c5n(C)c(=O)n6C5CCC(=O)NC5=O)[C@H](F)C4)CC3)sc2cc1NC(=O)c1cncc(C(F)(F)F)n1 (stereo partly shown) [I-174]
11 | < 10 nM | CN(C[C@H]1CC[C@H](n2cc3cc(NC(=O)c4cccc(C(F)(F)F)n4)ccc3n2)CC1)C1CCN(c2cccc3c2n(C)c(=O)n3C2CCC(=O)NC2=O)C[C@@H]1F (stereo partly shown) [I-32]
12 | < 10 nM | Cn1nc([C@@H]2CCC(=O)NC2=O)c2cccc([C@@H]3CCN(C[C@H]4CC[C@H](n5cc6cc(NC(=O)c7cncc(C#N)c7)c(C(C)(C)O)cc6n5)CC4)CC3(F)F)c21 (single isomer, unassigned) [I-230]
13 | < 10 nM | O=C1CCC(c2ccc(N3CC(CO[C@@H]4CCN(C[C@H]5CC[C@H](n6cc(NC(=O)c7cnn8ccc(N9C[C@H]%10C[C@@H]9CO%10)nc78)c(C(F)F)n6)CC5)C[C@@H]4F)C3)cc2Cl)C(=O)N1 (stereo partly shown) [I-38]
14 | > 200 nM | Cn1c(NC(=O)c2cccc(C(F)(F)F)n2)cc2cn([C@H]3CC[C@H](CN4CC[C@H](c5cccc6c5n(C)c(=O)n6C5CCC(=O)NC5=O)[C@@H](F)C4)CC3)nc2c1=O (stereo partly shown) [I-43]
15 | < 10 nM | COc1cn2nc([C@H]3CC[C@H](CN(C)[C@H]4CCN(c5cccc6c5n(C)c(=O)n6C5CCC(=O)NC5=O)C[C@@H]4F)CC3)cc2cc1NC(=O)c1cncc(C(F)(F)F)n1 (stereo partly shown) [I-301]
16 | 100 to 200 nM | Cn1c(=O)n(C2CCC(=O)NC2=O)c2cccc(N3CCN(C[C@H]4CC[C@H](n5cc6cc(NC(=O)c7cncc(C(F)(F)F)n7)ccc6n5)CC4)[C@@H](C(F)(F)F)C3)c21 (stereo partly shown) [I-369]
17 | < 10 nM | CN(C[C@H]1CC[C@H](c2nc3cc(C(C)(C)O)c(NC(=O)c4cncc(C(F)(F)F)n4)cc3o2)CC1)[C@H]1CCN(c2cccc3c2n(C)c(=O)n3C2CCC(=O)NC2=O)C[C@@H]1F (single isomer, unassigned) [I-298]
18 | < 10 nM | CN(C[C@H]1CC[C@H](n2cc(NC(=O)c3cnn4ccc(N5C[C@H]6C[C@@H]5CO6)nc34)c(C(F)F)n2)CC1)[C@H]1CCN(c2cccc3c2n(C)c(=O)n3[C@H]2CCC(=O)NC2=O)C[C@@H]1F (single isomer, unassigned) [I-144]
19 | < 10 nM | Cn1c(=O)n(C2CCC(=O)NC2=O)c2cccc([C@@H]3CCN(C[C@H]4C[C@H](n5cc6cc(NC(=O)c7cccc(C(F)(F)F)n7)c(C#N)cc6n5)C4)C[C@H]3F)c21 (stereo partly shown) [I-94]
20 | < 10 nM | CN(C[C@H]1CC[C@H](c2cn3cc(NC(=O)c4cncc(C(F)(F)F)n4)c(C(C)(C)O)cc3n2)CC1)[C@H]1CCN(c2cccc3c2n(C)c(=O)n3C2CCC(=O)NC2=O)C[C@H]1F (single isomer, unassigned) [I-336]

Row | DC50 | Compound
21 | < 10 nM | CN(C[C@H]1CC[C@H](n2cc3cc(NC(=O)c4cccc(C(F)(F)F)n4)ncc3n2)CC1)[C@@H]1CCN(c2cccc3c2n(C)c(=O)n3C2CCC(=O)NC2=O)C[C@@H]1F (stereo partly shown) [I-35]
22 | < 10 nM | CN(C[C@H]1C[C@@H](n2cc(NC(=O)c3cnn4ccc(N5C[C@H]6C[C@@H]5CO6)nc34)c(C(F)F)n2)C1)[C@H]1CCN(c2cccc3c2n(C)c(=O)n3C2CCC(=O)NC2=O)C[C@@H]1F (single isomer, unassigned) [I-4]
23 | < 10 nM | Cn1c(=O)n([C@H]2CCC(=O)NC2=O)c2cccc([C@@H]3CCN(C[C@H]4CC[C@H](c5nc6cc(C(C)(C)O)c(NC(=O)c7cncc(C#N)c7)cc6s5)CC4)C[C@H]3F)c21 (single isomer, unassigned) [I-236]
24 | 10 to 100 nM | Cn1c(=O)n(C2CCC(=O)NC2=O)c2cccc(N3CCN(C[C@H]4CC[C@H](n5cc6cc(NC(=O)c7cncc(C(F)(F)F)n7)ccc6n5)CC4)[C@H](C(F)(F)F)C3)c21 (stereo partly shown) [I-368]
25 | > 200 nM | COc1cn2nc([C@H]3CC[C@H](CN4CCC5(CCN(c6cccc7c6n(C)c(=O)n7C6CCC(=O)NC6=O)CC5)C(F)(F)C4)CC3)cc2cc1NC(=O)c1cncc(C#N)c1 (stereo partly shown) [I-282]
26 | < 10 nM | COc1cc2nn([C@H]3CC[C@H](CN4CC[C@H](c5cccc6c5n(C)c(=O)n6C5CCC(=O)NC5=O)[C@@H](F)C4)CC3)cc2cc1NC(=O)c1cncc(C#N)c1 (single isomer, unassigned) [I-100]
27 | < 10 nM | Cn1nc(C2CCC(=O)NC2=O)c2cccc(N3CC(O)(CN4CCN(C[C@H]5CC[C@H](n6cc(NC(=O)c7cnn8ccc(N9C[C@H]%10C[C@@H]9CO%10)nc78)c(C(F)F)n6)CC5)CC4)C3)c21 (stereo partly shown) [I-86]
28 | < 10 nM | Cn1c(=O)n(C2CCC(=O)NC2=O)c2cccc([C@@H]3CCN(C[C@H]4CC[C@H](n5cc6cc(NC(=O)c7cccc(C(F)(F)F)n7)ccc6n5)CC4)C[C@H]3F)c21 (single isomer, unassigned) [I-12]
29 | < 10 nM | Cn1nc(C2CCC(=O)NC2=O)c2cccc([C@@H]3CCN(C[C@H]4CC[C@H](n5cc6cc(NC(=O)c7cccc(C(F)(F)F)n7)ccc6n5)CC4)C[C@H]3F)c21 (stereo partly shown) [I-122]
30 | > 200 nM | COc1cc2nc([C@H]3CC[C@H](CN4CC[C@@H](c5cccc6c5n(C)c(=O)n6C5CCC(=O)NC5=O)[C@H](F)C4)CC3)cn2cc1NC(=O)c1cncc(C#N)c1 (stereo partly shown) [I-198]
31 | 10 to 100 nM | CN(C[C@H]1CC[C@H](c2cc3cc(NC(=O)c4cncc(C(F)(F)F)n4)ccn3n2)CC1)[C@H]1CCN(c2cccc3c2n(C)c(=O)n3C2CCC(=O)NC2=O)C[C@H]1F (single isomer, unassigned) [I-212]
32 | < 10 nM | Cn1c(=O)n([C@@H]2CCC(=O)NC2=O)c2cccc(N3CCC4(CCN(C[C@H]5CC[C@H](n6cc7cc(NC(=O)c8cncc(C#N)c8)c(C(C)(C)O)cc7n6)CC5)CC4(F)F)CC3)c21 (single isomer, unassigned) [I-224]
33 | < 10 nM | Cn1c(=O)n(C2CCC(=O)NC2=O)c2cccc(N3CCN(C[C@H]4CC[C@H](n5cc6cc(NC(=O)c7cncc(C(F)(F)F)n7)ccc6n5)CC4)CC3=O)c21 (stereo partly shown) [I-350]
34 | 10 to 100 nM | COc1cc2nc([C@H]3CC[C@H](CN4CC[C@@H](c5cccc6c5n(C)c(=O)n6C5CCC(=O)NC5=O)[C@H](F)C4)CC3)oc2cc1NC(=O)c1cccc(C(F)(F)F)n1 (single isomer, unassigned) [I-121]
35 | 10 to 100 nM | Cn1c(=O)n(C2CCC(=O)NC2=O)c2cccc(N3CCC4(CCN(C[C@H]5CC[C@H](n6cc7cc(NC(=O)c8cccc(C(F)(F)F)c8)ccc7n6)CC5)CC4(F)F)CC3)c21 (stereo partly shown) [I-158]
36 | < 10 nM | CN(C[C@H]1CC[C@H](n2cc3cc(NC(=O)c4cccc(C(F)(F)F)n4)c(C#N)cc3n2)CC1)[C@H]1CCN(c2cccc3c2n(C)c(=O)n3C2CCC(=O)NC2=O)C[C@@H]1F (stereo partly shown) [I-9]
37 | 10 to 100 nM | COc1cc2nn([C@H]3CC[C@H](CN4CCC5(CCN(c6ccc(C7CCC(=O)NC7=O)c(Cl)c6)CC5)C(F)(F)C4)CC3)cc2cc1NC(=O)c1cncc(C#N)c1 (stereo partly shown) [I-130]
38 | 10 to 100 nM | O=C1CCC(Nc2ccc(N3CC(CO[C@H]4CCN(C[C@H]5CC[C@H](n6cc(NC(=O)c7cnn8ccc(N9C[C@H]%10C[C@@H]9CO%10)nc78)c(C(F)F)n6)CC5)C[C@@H]4F)C3)cc2)C(=O)N1 (single isomer, unassigned) [I-85]
39 | < 10 nM | Cn1nc(C2CCC(=O)NC2=O)c2cccc(N3CC(CN4CCN(C[C@H]5CC[C@H](n6cc(NC(=O)c7cnn8ccc(N9C[C@H]%10C[C@@H]9CO%10)nc78)c(C(F)F)n6)CC5)CC4)C3)c21 (stereo partly shown) [I-93]
40 | < 10 nM | O=C1CC[C@H](c2ccc(N3CC(N4CCN([C@H]5CC[C@H](n6cc(NC(=O)c7cnn8ccc(N9C[C@H]%10C[C@@H]9CO%10)nc78)c(C(F)F)n6)CC5)CC4)C3)cc2Cl)C(=O)N1 [I-124]
